Experimental data from patent US8980906B2, “Pyridonemorphinan analogs and biological activity on opioid receptors” (Purdue Pharma L.P., priority 2012, dated 2015).

Legend:
[1] = biological target: κ-opioid receptor (Homo sapiens (Human), UniProt P41145); assay: κ-opioid receptor radioligand dose-displacement binding assay ([3H]-U69,593); conditions: binding affinity, [3H]-U69,593 displacement
How it was run: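 Competition binding with 0.4 nM [3H]-U69,593 and 15 μg membrane protein from HEK 293 cells expressing recombinant human κ receptor, in 50 mM Tris pH 7.4 with 5% DMSO, 1 h at about 25 °C. Nonspecific binding defined with 10 μM naloxone or U69,593; bound ligand collected by GF/C filtration and scintillation counting.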

[2] = biological target: ORL-1 receptor (Homo sapiens (Human), UniProt P41146); assay: ORL-1 receptor radioligand binding assay ([3H]-nociceptin); conditions: binding affinity, [3H]-nociceptin displacement
Protocol: ORL-1 Receptor Binding Assay Procedure: Membranes from recombinant HEK-293 cells expressing the human opioid receptor-like receptor (ORL-1) (Perkin Elmer, Shelton, Conn.) were prepared by lysing cells in ice-cold hypotonic buffer (2.5 mM MgCl2, 50 mM HEPES, pH 7.4) (10 ml/10 cm dish) followed by homogenization with a tissue grinder/Teflon pestle. Membranes were collected by centrifugation at 30,000×g for […] at 4° C. and pellets resuspended in hypotonic buffer to a final concentration of 1-3 mg/ml. Protein concentrations were determined using the BioRad protein assay reagent with bovine serum albumen as standard. Aliquots of the ORL-1 receptor membranes were stored at −80° C.
Radioligand binding assays (screening and dose-displacement) used 0.1 nM [^3H]-nociceptin (Perkin Elmer, Shelton, Conn.; 87.7 Ci/mmole) with 12 μg membrane protein in a final volume of 500 μl binding buffer (10 mM MgCl2, 1 mM EDTA, 5% DMSO, 50 mM HEPES, pH 7.4). Non-specific binding was determined in the presence of […] unlabeled nociceptin (American Peptide Company). All reactions were performed in 96-deep well polypropylene plates for 1 h at room temperature. Binding reactions were terminated by rapid filtration onto 96-well Unifilter GF/C filter plates (Perkin Elmer, Shelton, Conn.) presoaked in 0.5% polyethylenimine (Sigma). Harvesting was performed using a 96-well tissue harvester (Perkin Elmer, Shelton, Conn.) followed by three filtration washes with 500 μl ice-cold binding buffer. Filter plates were subsequently dried at 50° C. for 2-3 hours. Fifty μl/well scintillation cocktail (Perkin Elmer, Shelton, Conn.) was added and plates were counted in a Packard Top-Count for 1 min/well. The data from screening and dose-displacement experiments were analyzed using Microsoft Excel and the curve fitting functions in GraphPad PRISM™, v. 3.0 or higher, respectively, or an in-house function for one-site competition curve-fitting.

[3] = biological target: δ-opioid receptor (Homo sapiens (Human), UniProt P41143); assay: δ-opioid receptor [35S]GTPγS functional assay, HEK-293 or CHO cells; type: biochemical
Sequence of δ-opioid receptor (P41143 whole entry, looked up): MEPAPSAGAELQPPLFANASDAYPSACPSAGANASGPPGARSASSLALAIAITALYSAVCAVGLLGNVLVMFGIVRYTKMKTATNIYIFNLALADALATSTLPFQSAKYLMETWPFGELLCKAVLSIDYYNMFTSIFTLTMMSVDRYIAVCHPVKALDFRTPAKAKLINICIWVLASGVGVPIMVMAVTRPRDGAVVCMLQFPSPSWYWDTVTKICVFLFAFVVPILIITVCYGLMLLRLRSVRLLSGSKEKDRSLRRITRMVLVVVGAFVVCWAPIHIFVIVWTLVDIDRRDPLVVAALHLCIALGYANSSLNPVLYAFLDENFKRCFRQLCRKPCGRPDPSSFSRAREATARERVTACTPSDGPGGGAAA
Protocol: δ-Opioid Receptor Functional Assay Procedures: Functional [^35S]GTPγS binding assays were conducted as follows. δ-Opioid receptor membrane solution was prepared by sequentially adding final concentrations of 0.026 μg/μl δ membrane protein (Perkin Elmer, Shelton, Conn.), 10 μg/mL saponin, 3 μM GDP and 0.20 nM [^35S]GTPγS to binding buffer (100 mM NaCl, 10 mM MgCl2, 20 mM HEPES, pH 7.4) on ice. The prepared membrane solution (190 μl/well) was transferred to 96-shallow well polypropylene plates containing 10 μl of 20× concentrated stock solutions of agonist prepared in DMSO. Plates were incubated for 30 min at a temperature of about 25° C. with shaking. Reactions were terminated by rapid filtration onto 96-well Unifilter GF/B filter plates (Perkin Elmer, Shelton, Conn.) using a 96-well tissue harvester (Packard) and followed by three filtration washes with 200 μl ice-cold binding buffer (10 mM NaH2PO4, 10 mM Na2HPO4, pH 7.4). Filter plates were subsequently dried at 50° C. for 1-2 hours. Fifty μl/well scintillation cocktail (Perkin Elmer, Shelton, Conn.) was added and plates were counted in a Packard Top-count for 1 min/well.
δ-Opioid Receptor Functional Data: δ GTP EC50 is the concentration of a compound providing 50% of the maximal response for the compound at a δ receptor.
δ GTP Emax (%) is the maximal effect elicited by a compound relative to the effect elicited by met-enkephalin.
In TABLE 2, activity response of certain Compounds of the Invention to the μ-, δ- and κ-opioid receptors was determined as described above for functional assays using HEK-293 or CHO cells.

Compound	Ki [1]	Ki [2]	EC50 [3]	Emax ([3]; relative to met-enkephalin, HEK-293 or CHO cells)
NC(=O)c1cc2c([nH]c1=O)C[C@]13CCN(CC4CC4)[C@H](Cc4ccc(O)cc41)[C@]3(O)C2 [Compound 5, (6R,6aS,12aR)-15-(cyclopropylmethyl)-2,6a-dihydroxy-10-oxo-6,6a,7,10,11,12-hexahydro-5H-6,12a-(epiminoethano)naphtho[2,1-g]quinoline-9-carboxamide]	0.58 ± 0.15 nM	1330 ± 310 nM	> 20000 nM	–
O=C(O)c1cc2c([nH]c1=O)C[C@]13CCN(CC4CC4)[C@H](Cc4ccc(O)cc41)[C@]3(O)C2 [Compound 9, (6R,6aS,12aR)-15-(cyclopropylmethyl)-2,6a-dihydroxy-10-oxo-6,6a,7,10,11,12-hexahydro-5H-6,12a-(epiminoethano)naphtho[2,1-g]quinoline-9-carboxylic acid]	1.52 ± 0.18 nM	2320 ± 320 nM	> 20000 nM	–
O=C(O)c1cc2c([nH]c1=O)C[C@]13CCN(CC4CC4)[C@H](Cc4ccc(O)cc41)[C@@H]3C2 [Compound 11, (6R,6aR,12aS)-15-(cyclopropylmethyl)-2-hydroxy-10-oxo-6,6a,7,10,11,12-hexahydro-5H-6,12a-(epiminoethano)naphtho[2,1-g]quinoline-9-carboxylic acid]	18.5 ± 7.73 nM	4.91 ± 0.82 nM	3.53 ± 1.5 nM	36 ± 3.21%
